ChEMBL document CHEMBL5108067, “Discovery of Potent OTUB1/USP8 Dual Inhibitors Targeting Proteostasis in Non-Small-Cell Lung Cancer” (J Med Chem, 2022)
Calls of active or inactive are those of the source. No cut-off for these calls is given here.

Columns and labels:
[1] = Aqueous solubility of the compound measured after 24 hr by […] LC-MS/MS analysis; assay type: physicochemical; details: buffer
[2] = target: T1, Ubiquitin carboxyl-terminal hydrolase 8 (Homo sapiens) (UniProt P40818); experiment: Inhibition of N-terminal His-6 tagged USP8 (734 to 1110 residues) (unknown origin) expressed in Escherichia coli BL21 (DE3) cells at 100 nM measured after 3 hrs by fluorescence based Plate reader method relative to control; details: values are per cent of control
T1 sequence (whole entry): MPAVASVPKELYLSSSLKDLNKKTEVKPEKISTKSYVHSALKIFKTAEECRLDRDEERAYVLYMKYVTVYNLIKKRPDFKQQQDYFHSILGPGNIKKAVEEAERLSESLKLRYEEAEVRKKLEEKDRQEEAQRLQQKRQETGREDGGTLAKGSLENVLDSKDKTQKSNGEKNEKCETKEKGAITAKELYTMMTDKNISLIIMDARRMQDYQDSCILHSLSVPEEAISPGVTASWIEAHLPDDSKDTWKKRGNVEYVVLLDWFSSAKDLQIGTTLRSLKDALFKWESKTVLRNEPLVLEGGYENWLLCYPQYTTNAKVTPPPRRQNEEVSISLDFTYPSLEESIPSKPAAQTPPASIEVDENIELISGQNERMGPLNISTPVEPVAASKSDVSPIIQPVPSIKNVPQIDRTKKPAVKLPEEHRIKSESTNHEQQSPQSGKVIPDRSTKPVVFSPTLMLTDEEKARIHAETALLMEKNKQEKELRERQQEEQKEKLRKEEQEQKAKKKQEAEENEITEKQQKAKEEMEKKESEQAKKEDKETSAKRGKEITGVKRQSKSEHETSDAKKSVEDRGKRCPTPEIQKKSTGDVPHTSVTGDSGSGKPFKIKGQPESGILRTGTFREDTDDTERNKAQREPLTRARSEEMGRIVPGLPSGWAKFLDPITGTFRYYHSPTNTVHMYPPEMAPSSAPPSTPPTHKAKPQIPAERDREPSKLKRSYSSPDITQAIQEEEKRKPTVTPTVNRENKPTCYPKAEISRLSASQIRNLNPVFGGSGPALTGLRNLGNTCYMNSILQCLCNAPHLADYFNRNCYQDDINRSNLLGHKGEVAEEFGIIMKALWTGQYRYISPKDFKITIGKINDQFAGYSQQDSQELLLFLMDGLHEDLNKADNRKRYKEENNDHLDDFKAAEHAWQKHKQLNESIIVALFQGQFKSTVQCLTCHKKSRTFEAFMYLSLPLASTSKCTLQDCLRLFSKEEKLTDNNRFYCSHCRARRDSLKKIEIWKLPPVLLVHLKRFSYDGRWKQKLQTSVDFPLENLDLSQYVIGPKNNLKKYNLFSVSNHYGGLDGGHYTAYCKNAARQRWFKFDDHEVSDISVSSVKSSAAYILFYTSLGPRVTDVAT

[3] = target: T2, Ubiquitin thioesterase OTUB1 (Homo sapiens, UniProt Q96FW1); experiment: Inhibition of N-terminal His-6 tagged OTUB1 (40 to 271 residues) (unknown origin) expressed in Escherichia coli BL21 (DE3) cells at 10 nM using Ub-Rho measured after 0.5 to 3 hrs by fluorescence based Plate reader method relative to control; details: time 0.5-3 hrs, values are per cent of control
[4] = target: T1, Ubiquitin carboxyl-terminal hydrolase 8 (Homo sapiens); experiment: Inhibition of N-terminal His-6 tagged USP8 (734 to 1110 residues) (unknown origin) expressed in Escherichia coli BL21 (DE3) cells at 10 nM measured after 3 hrs by fluorescence based Plate reader method relative to control; details: values are per cent of control
[5] = target: T2, Ubiquitin thioesterase OTUB1; experiment: Inhibition of N-terminal His-6 tagged OTUB1 (40 to 271 residues) (unknown origin) expressed in Escherichia coli BL21 (DE3) cells at 100 nM using Ub-Rho measured after 0.5 to 3 hrs by fluorescence based Plate reader method relative to control; details: time 0.5-3 hrs, values are per cent of control
[6] = target: T2, Ubiquitin thioesterase OTUB1; experiment: Inhibition of N-terminal His-6 tagged OTUB1 (40 to 271 residues) (unknown origin) expressed in Escherichia coli BL21 (DE3) cells at […] using Ub-Rho measured after 0.5 to 3 hrs by fluorescence based Plate reader method relative to control; details: dose 2.5 µM, time 0.5-3 hrs
[7] = target: T2, Ubiquitin thioesterase OTUB1; experiment: Binding affinity to OTUB1 in HEK293T cells at 0.5 uM preincubated for 2 hrs followed by UV irradiation and measured after 20 mins by Western blot analysis; assay type: cell-based; details: time 140.0 min
[8] = target: T2, Ubiquitin thioesterase OTUB1; experiment: Inhibition of N-terminal His-6 tagged OTUB1 (40 to 271 residues) (unknown origin) expressed in Escherichia coli BL21 (DE3) cells using Ub-Rho measured after 0.5 to 3 hrs by fluorescence based Plate reader method
[9] = target: T2, Ubiquitin thioesterase OTUB1; experiment: Binding affinity to OTUB1 in HEK293T cells at […] preincubated for 30 mins followed by UV irradiation and measured after 20 mins by Western blot analysis; assay type: cell-based; details: dose 2.5 µM, time 50.0 min
[10] = target: T2, Ubiquitin thioesterase OTUB1; experiment: Binding affinity to OTUB1 in HEK293T cells at 1 uM preincubated for 2 hrs followed by UV irradiation and measured after 20 mins by silver staining based gel electrophoresis assay; assay type: cell-based; details: time 140.0 min
[11] = target: T2, Ubiquitin thioesterase OTUB1; experiment: Binding affinity to OTUB1 in HEK293T cells at 5 uM preincubated for 30 mins followed by UV irradiation and measured after 20 mins by Western blot assay; assay type: cell-based; details: time 50.0 min

T2 sequence (Q96FW1 whole entry, the tested form may be a part): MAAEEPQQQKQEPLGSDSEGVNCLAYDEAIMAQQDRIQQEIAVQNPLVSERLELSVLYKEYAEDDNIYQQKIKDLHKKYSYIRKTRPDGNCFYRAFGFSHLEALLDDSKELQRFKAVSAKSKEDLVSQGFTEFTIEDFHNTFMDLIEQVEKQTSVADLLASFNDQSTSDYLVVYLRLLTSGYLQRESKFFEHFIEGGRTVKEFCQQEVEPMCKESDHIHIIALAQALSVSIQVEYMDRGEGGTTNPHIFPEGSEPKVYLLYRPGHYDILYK

| Structure (SMILES) | solubility [1] | residual activity [2] [%] | residual activity [3] [%] | residual activity [4] [%] | residual activity [5] [%] | inhibition [6] [%] | Activity [7] | IC50 [8] [µM] | Activity [9] | Activity [10] | Activity [11] |
| --- | --- | --- | --- | --- | --- | --- | --- | --- | --- | --- | --- |
| CN1CCN(CCOc2ccc(F)c(-c3nc4c(o3)C(=O)c3ccccc3C4=O)c2Cl)CC1 | Soluble | 21.4 | 17 | 26.7 | 8.7 | – | – | – | – | – | – |
| N#Cc1ccc(-c2nc3c(o2)C(=O)c2ccccc2C3=O)cc1 | Insoluble | 20.8 | 46.4 | 38.9 | 15.2 | – | – | – | – | – | – |
| CN1CC[C@@H](Oc2cc(-c3nc4c(o3)C(=O)c3ccccc3C4=O)ccc2Cl)C1 | Soluble | 24.9 | 23.6 | 51.8 | 12.8 | – | – | – | – | – | – |
| C#CCCC1(CCN2CC[C@@H](Oc3cccc(-c4nc5c(o4)C(=O)c4ccccc4C5=O)c3)C2)N=N1 | – | – | – | – | – | – | Active | 0.037 | Active | Active | – |
| CN1CCN(CCOc2ccc(Cl)c(-c3nc4c(o3)C(=O)c3ccccc3C4=O)c2F)CC1 | Soluble | 32.6 | 14.4 | 33.1 | 7.2 | – | – | – | – | – | – |
| C#CCCC1(CCN2CC[C@@H](Oc3cccc(-c4nc5c([nH]4)C(=O)c4ccccc4C5=O)c3)C2)N=N1 | – | – | – | – | – | – | – | 6.12 | – | – | Active |
| CN1CC[C@@H](Oc2cccc(-c3nc4c(o3)C(=O)c3ccccc3C4=O)c2F)C1 | – | 38.6 | 76.7 | 71.6 | 41.3 | – | – | – | – | – | – |
| O=C1c2ccccc2C(=O)c2oc(-c3ccc(C(F)(F)F)cc3)nc21 | – | 18.2 | 60.3 | 37.8 | 29 | – | – | – | – | – | – |
| CN1CCN(CCOc2cccc(-c3nc4c(o3)C(=O)c3ccccc3C4=O)c2)CC1 | – | 53.6 | 66.8 | 76.4 | 36.9 | – | – | – | – | – | – |
| CN(C)CCOc1cccc(-c2nc3c(o2)C(=O)c2ccccc2C3=O)c1 | – | 31.7 | 66.7 | 60.4 | 28.7 | – | – | – | – | – | – |
| CN1CCN(CCOc2cc(-c3nc4c(o3)C(=O)c3ccccc3C4=O)ccc2Cl)CC1 | – | 50.9 | 75.9 | 82 | 38.2 | – | – | – | – | – | – |
| CN1CC[C@@H](Oc2ccc(-c3nc4c(o3)C(=O)c3ccccc3C4=O)c(C(F)(F)F)c2)C1 | – | 42.5 | 74.7 | 63.2 | 42.4 | – | – | – | – | – | – |
| CN1CC[C@@H](Oc2cccc(-c3nc4c(o3)C(=O)c3ccccc3C4=O)c2)C1 | – | 30 | 70.7 | 68.3 | 34 | – | – | – | – | – | – |
| CN(C)CCOc1cccc(-c2nc3c([nH]2)C(=O)c2ccccc2C3=O)c1 | – | 86.4 | 86.5 | 88.7 | 80.4 | – | – | – | – | – | – |

The remaining lines, values ahead:

| solubility [1] | residual activity [2] [%] | residual activity [3] [%] | residual activity [4] [%] | residual activity [5] [%] | inhibition [6] [%] | Activity [7] | IC50 [8] [µM] | Activity [9] | Activity [10] | Activity [11] | Structure (SMILES) |
| --- | --- | --- | --- | --- | --- | --- | --- | --- | --- | --- | --- |
| Insoluble | 26.5 | 37.3 | 62.9 | 9.6 | – | – | – | – | – | – | O=C1c2ccccc2C(=O)c2oc(-c3c(F)cccc3Cl)nc21 |
| Insoluble | 28.4 | 23.3 | 52.4 | 10.4 | – | – | – | – | – | – | O=C1c2ccccc2C(=O)c2oc(-c3c(F)ccc(F)c3Cl)nc21 |
| – | – | – | – | – | 100 | – | – | – | – | – | O=C1c2ccccc2C(=O)c2oc(-c3ccccc3)nc21 |
| – | 30 | 70.2 | 53.6 | 40.4 | – | – | – | – | – | – | COc1cc(-c2nc3c(o2)C(=O)c2ccccc2C3=O)ccc1Cl |
| – | 32.9 | 61.7 | 52.7 | 30.9 | – | – | – | – | – | – | COc1cccc(-c2nc3c(o2)C(=O)c2ccccc2C3=O)c1 |
| – | 16 | 62.4 | 58.4 | 42.2 | – | – | – | – | – | – | O=C1c2ccccc2C(=O)c2oc(-c3ccc(Cl)cc3Cl)nc21 |
| – | 29.4 | 47.8 | 41.9 | 18.9 | – | – | – | – | – | – | O=C1c2ccccc2C(=O)c2oc(-c3cccc([N+](=O)[O-])c3)nc21 |
| – | 19.3 | 44.5 | 34.7 | 19.4 | – | – | – | – | – | – | O=C1c2ccccc2C(=O)c2oc(-c3ccc(F)cc3F)nc21 |
| – | 23.6 | 23.3 | 41.5 | 20.5 | – | – | – | – | – | – | COc1ccc(F)c(-c2nc3c(o2)C(=O)c2ccccc2C3=O)c1Cl |
| – | 21.6 | 47.2 | 51.1 | 19 | – | – | – | – | – | – | O=C1c2ccccc2C(=O)c2oc(-c3ccccc3[N+](=O)[O-])nc21 |
| Insoluble | 21.6 | 23.1 | 54.4 | 13.2 | – | – | – | – | – | – | O=C1c2ccccc2C(=O)c2oc(-c3cccc(C(F)(F)F)c3)nc21 |
